This is an account of results in ChEMBL document CHEMBL4017461, “Investigation of the inhibitory mechanism of apomorphine against MDM2-p53 interaction” (Bioorg Med Chem Lett, 2017).

One may read the pIC50 as −log10 of the IC50, conventionally taken in molar units. Read a high pIC50 as a small IC50.

pIC50: −log10 of the molar value. Active and inactive are the calls of the source. No cut-off for these calls is given here. A value given as a limit tells only on which side of the number the result lay.

For assay [1], the target named is T1, E3 ubiquitin-protein ligase Mdm2 (Homo sapiens, UniProt Q00987). The assay is described as follows: Inhibition of biotin-labelled L-p53 binding to L-MDM2 (25 to 109 residues) (unknown origin) by FAM labeled P4 peptide based fluorescence polarization assay. (In general: Polarisation of emitted light reports the rotation of a fluorescent probe.)
Target sequence in this assay (Q00987 whole entry, the tested form may be a part): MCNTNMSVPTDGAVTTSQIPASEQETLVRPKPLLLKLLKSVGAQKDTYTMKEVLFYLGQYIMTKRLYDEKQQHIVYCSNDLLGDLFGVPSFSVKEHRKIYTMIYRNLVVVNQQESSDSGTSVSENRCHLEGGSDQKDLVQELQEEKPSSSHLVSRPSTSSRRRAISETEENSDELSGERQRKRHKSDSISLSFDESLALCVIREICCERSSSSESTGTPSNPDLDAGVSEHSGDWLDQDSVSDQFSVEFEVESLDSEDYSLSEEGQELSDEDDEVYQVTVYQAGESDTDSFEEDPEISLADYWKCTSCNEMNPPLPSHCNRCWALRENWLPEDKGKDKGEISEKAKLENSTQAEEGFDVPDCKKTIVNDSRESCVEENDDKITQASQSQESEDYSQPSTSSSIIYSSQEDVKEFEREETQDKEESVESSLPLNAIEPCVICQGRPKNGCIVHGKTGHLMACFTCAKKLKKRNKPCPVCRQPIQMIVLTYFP
Assay [2] concerns the target T1, E3 ubiquitin-protein ligase Mdm2. The assay can be described thus: Binding affinity to MDM2 (25 to 109 residues) (unknown origin) assessed as adduct formation at 10 uM after 10 mins by MALDI-TOF MS analysis.
Target sequence in this assay (Q00987 whole entry, looked up, the tested form may be a part): as the sequence (Q00987 whole entry, the tested form may be a part) above
Assay [3] is described as follows: Inhibition of biotin-labelled P4 peptide binding to MDM2 Ser77 mutant (unknown origin) by surface plasmon resonance method. More on the design: species or system Homo sapiens. A general note: In SPR one partner is held on a chip, and binding of the other changes the refractive index at the surface.
The species named for the next assay is Homo sapiens. The assay is described as follows: Binding affinity to MDM2 Cys(Me)77 mutant (unknown origin) assessed as adduct formation at 10 uM after 10 mins by MALDI-TOF-MS analysis.
For assay [4], the target named is T1, E3 ubiquitin-protein ligase Mdm2. The assay can be described thus: Inhibition of biotin-labelled p53 binding to MDM2 (25 to 109 residues) (unknown origin) by surface plasmon resonance method.
Assay [5] has the same target. The assay can be described thus: Inhibition of biotin-labelled P4 peptide binding to MDM2 (25 to 109 residues) (unknown origin) by surface plasmon resonance method.
Target sequence in this assay (Q00987 whole entry, the tested form may be a part): as above
Assay [6] in a line: Drug level in 1:1 PBS/CH3CN mixture treated with R-(-)-apomorphine at 10 mM measured after 24 hrs by HPLC method.
A short description of assay [7]: Inhibition of biotin-labelled P4 peptide binding to MDM2 Cys(Me)77 mutant (unknown origin) by surface plasmon resonance method. On the set-up: species or system Homo sapiens.
The nature of assay [8]: Inhibition of biotin-labelled p53 binding to MDM2 Ser77 mutant (unknown origin) by surface plasmon resonance method. More on the design: species or system Homo sapiens.
For assay [9], the target named is T1, E3 ubiquitin-protein ligase Mdm2. The assay is described as follows: Inhibition of biotin-labelled D-p53 binding to D-MDM2 (25 to 109 residues) (unknown origin) by FAM labeled P4 peptide based fluorescence polarization assay.
Target sequence in this assay (Q00987 whole entry, looked up, the tested form may be a part): as the sequence (Q00987 whole entry, the tested form may be a part) above

`CN1CCc2cccc3c2[C@@H]1Cc1ccc(O)c(O)c1-3` [(S)APOMORPHINE] gave a pIC50 in assay [1] of 6.76.

Consider `CN1CCc2cccc3c4c(cc1c23)C=CC(=O)C4=O`, for which, in [2], the outcome was inactive. Moreover, the pIC50 in [3] is under 4.52; in assay [5], 5.77; in [7] it was under 4.52. Also, the result in the assay filed under Homo sapiens was Active. Besides, in assay [4], the inhibition result is “Active”. Moreover, the Drug metabolism entry in assay [6] is listed as “Metabolite detected”.

For `O=C1C=CC(=O)C=C1` [BENZOQUINONE], the negative-log IC50 (pIC50) is under 4.00 in [8] and 4.86 in assay [4].

Consider `CN1CCc2cccc3c2[C@H]1Cc1ccc(O)c(O)c1-3` [APOMORPHINE], for which the negative-log IC50 (pIC50) in assay [9] was 6.71; in assay [3], under 4.52; in assay [1], 6.67; in [5] it was under 4.52; in [7] it was under 4.52. Further, in [4], the inhibition result is “inactive”.

For `Oc1ccccc1O` [CATECHOL], the pIC50 in assay [4] is under 4.00.
